# Experimental data reported in US4677100A, “Cephalosporin derivatives” (Banyu Pharmaceutical Co., Ltd., priority 1984, dated 1987).
# What was measured:
# [1] = tested on: P. cepacia 23; assay: MIC, agar plate dilution method; type: cell-based, Pseudomonas cepacia; details: Burkholderia cepacia; P. cepacia 23; 10^6 CFU/ml; Sensitivity Disk Agar; read-out: Minimum Inhibitory Concentration
# Outline: (§1)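 MIC values (μg/ml) were determined by agar plate dilution on Sensitivity Disk Agar with an inoculum of 10^6 CFU/ml. Cefotaxime and ceftazidime were run alongside as comparators.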
# [2] = tested on: Gram-positive bacteria; details: background of the art; cited from earlier work
# [3] = tested on: P. aeruginosa AK109; assay: MIC, agar plate dilution method; type: cell-based, Pseudomonas aeruginosa; details: Pseudomonas aeruginosa; P. aeruginosa AK109; 10^6 CFU/ml; Sensitivity Disk Agar; read-out: Minimum Inhibitory Concentration
# Outline: as §1
# [4] = tested on: P. aeruginosa AKR17; assay: MIC, agar plate dilution method; type: cell-based, Pseudomonas aeruginosa; details: Pseudomonas aeruginosa; P. aeruginosa AKR17; 10^6 CFU/ml; Sensitivity Disk Agar; read-out: Minimum Inhibitory Concentration
# Outline: as §1
# [5] = tested on: P. vulgaris OB1043; assay: MIC, agar plate dilution method; type: cell-based; details: Proteus vulgaris; P. vulgaris OB1043; 10^6 CFU/ml; Sensitivity Disk Agar; read-out: Minimum Inhibitory Concentration
# Outline: as §1
# [6] = tested on: P. mirabilis JY10; assay: MIC, agar plate dilution method; type: cell-based; details: Proteus mirabilis; P. mirabilis JY10; 10^6 CFU/ml; Sensitivity Disk Agar; read-out: Minimum Inhibitory Concentration
# Outline: as §1
# [7] = tested on: E. coli ML1410/Rte16; assay: MIC, agar plate dilution method; type: cell-based; details: Escherichia coli, ML1410/RTE16, read-out: Minimum Inhibitory Concentration
# Outline: (§2)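 Compounds are serially diluted into Sensitivity Disk Agar plates, which are then inoculated at 10^6 CFU/ml. The lowest concentration that inhibits growth is recorded as the MIC in μg/ml.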
# [8] = tested on: S. aureus JS-1; assay: MIC, agar plate dilution method; type: cell-based; details: Staphylococcus aureus, JS1; S. aureus JS-1; 10^6 CFU/ml; Sensitivity Disk Agar; read-out: Minimum Inhibitory Concentration
# Outline: as §1
# [9] = tested on: S. marcescens No. 16-2; assay: MIC, agar plate dilution method; type: cell-based; details: Serratia marcescens, NO.162; S. marcescens No. 16-2; 10^6 CFU/ml; Sensitivity Disk Agar; read-out: Minimum Inhibitory Concentration
# Outline: as §1
# [10] = tested on: A. calcoaceticus No. 14; assay: MIC, agar plate dilution method; type: cell-based; details: Acinetobacter calcoaceticus; A. calcoaceticus No. 14; 10^6 CFU/ml; Sensitivity Disk Agar; read-out: Minimum Inhibitory Concentration
# Outline: as §1
# [11] = tested on: E. cloaceae Nek 39; assay: MIC, agar plate dilution method; type: cell-based; details: E. cloaceae Nek 39; 10^6 CFU/ml; Sensitivity Disk Agar; read-out: Minimum Inhibitory Concentration
# Outline: as §1
# [12] = tested on: E. coli C/Rms149; assay: MIC, agar plate dilution method; type: cell-based; details: Escherichia coli, read-out: Minimum Inhibitory Concentration
# Outline: as §2
# [13] = tested on: S. aureus NIHJJC-1; assay: MIC, agar plate dilution method; type: cell-based; details: Staphylococcus aureus, NIHJJC1; S. aureus NIHJJC-1; 10^6 CFU/ml; Sensitivity Disk Agar; read-out: Minimum Inhibitory Concentration
# Outline: as §1
# [14] = tested on: E. coli CSH2; assay: MIC, agar plate dilution method; type: cell-based; details: Escherichia coli, 10^6 CFU/ml, Sensitivity Disk Agar, read-out: Minimum Inhibitory Concentration
# Outline: as §1
# [15] = tested on: P. vulgaris No. 33; assay: MIC, agar plate dilution method; type: cell-based; details: Proteus vulgaris; P. vulgaris No. 33; 10^6 CFU/ml; Sensitivity Disk Agar; read-out: Minimum Inhibitory Concentration
# Outline: as §1
# [16] = tested on: K. pneumoniae No. 42; assay: MIC, agar plate dilution method; type: cell-based; details: Klebsiella pneumoniae; K. pneumoniae No. 42; 10^6 CFU/ml; Sensitivity Disk Agar; read-out: Minimum Inhibitory Concentration
# Outline: as §1
# [17] = tested on: E. coli W3630/Rms212; assay: MIC, agar plate dilution method; type: cell-based
# Outline: as §2
# [18] = tested on: E. coli W3630/Rms213; assay: MIC, agar plate dilution method; type: cell-based
# Outline: as §2
# [19] = tested on: E. coli CSH; assay: MIC, agar plate dilution method; type: cell-based
# Outline: as §2
# [20] = tested on: C. freundii No. 7; assay: MIC, agar plate dilution method; type: cell-based; details: Citrobacter freundii; C. freundii No. 7; 10^6 CFU/ml; Sensitivity Disk Agar; read-out: Minimum Inhibitory Concentration
# Outline: as §1
# [21] = tested on: E. coli NIHJJC-2; assay: MIC, agar plate dilution method; type: cell-based; details: Escherichia coli, NIHJJC2; E. coli NIHJJC-2; 10^6 CFU/ml; Sensitivity Disk Agar; read-out: Minimum Inhibitory Concentration
# Outline: as §1
# [22] = tested on: P. maltophilia IID 1275; assay: MIC, agar plate dilution method; type: cell-based, Pseudomonas maltophilia; details: Stenotrophomonas maltophilia, IID1275; P. maltophilia IID 1275; 10^6 CFU/ml; Sensitivity Disk Agar; read-out: Minimum Inhibitory Concentration
# Outline: as §1
# [23] = tested on: Gram-negative bacteria; details: background of the art; cited from earlier work
# [24] = tested on: Gram-positive bacteria and Gram-negative bacteria; details: background of the art; cited from earlier work
smiles,measurement,setting,value
"CO/N=C(\C(=O)N[C@@H]1C(=O)N2C(C(=O)O)=C(COC(C)=O)CS[C@H]12)c1csc(N)n1 [Cefotaxime, reference compound]",MIC,[1],3.12 µg/mL
same,antibacterial activity (in words),[2],relatively poor antibacterial activities
same,MIC,[3],6.25 µg/mL
same,MIC,[4],> 25 µg/mL
same,MIC,[5],0.39 µg/mL
same,MIC,[6],≤ 0.05 µg/mL
same,MIC,[7],≤ 0.05 µg/mL
same,MIC,[8],6.25 µg/mL
same,MIC,[9],6.25 µg/mL
same,MIC,[10],25 µg/mL
same,MIC,[11],0.78 µg/mL
same,MIC,[12],≤ 0.05 µg/mL
same,MIC,[13],0.78 µg/mL
same,MIC,[14],≤ 0.05 µg/mL
same,MIC,[15],≤ 0.05 µg/mL
same,MIC,[16],≤ 0.05 µg/mL
same,Minimum Inhibitory Concentration,"[17]; E. coli W3630/Rms212, 10^6 CFU/ml, Sensitivity Disk Agar",0.10 µg/mL
same,MIC,"[17]; Escherichia coli, W3630/RMS212, read-out: Minimum Inhibitory Concentration",0.1 µg/mL
same,Minimum Inhibitory Concentration,"[18]; E. coli W3630/Rms213, 10^6 CFU/ml, Sensitivity Disk Agar",0.20 µg/mL
same,MIC,"[18]; Escherichia coli, W3630/RMS213, read-out: Minimum Inhibitory Concentration",0.2 µg/mL
same,Minimum Inhibitory Concentration,"[19]; E. coli CSH, 10^6 CFU/ml, Sensitivity Disk Agar",0.10 µg/mL
same,MIC,"[19]; Escherichia coli, read-out: Minimum Inhibitory Concentration",0.1 µg/mL
same,MIC,[20],0.39 µg/mL
same,MIC,[21],≤ 0.05 µg/mL
same,MIC,[22],> 25 µg/mL
same,antibacterial activity (in words),[23],excellent activities
same,antibacterial activity (in words),[24],excellent antibacterial activities
